Results on 14 molecules are retold here after US10590082B2, “N-(5-((aryl or heteroaryl)methyloxy)pentyl)-substituted iminosugars as inhibitors of glucosylceramide synthase” (Academisch Medisch Centrum, priority 2014, dated 2020).

One assay deals with intestinal glycosidases. As to conditions: background statement; cited from earlier work.
The next assay has as its target T1, GBA1 (Homo sapiens, UniProt P04062, R534H).
T1 construct: purchased Sanofi (Cerezyme)
T1 sequence (P04062 40-536 R534H): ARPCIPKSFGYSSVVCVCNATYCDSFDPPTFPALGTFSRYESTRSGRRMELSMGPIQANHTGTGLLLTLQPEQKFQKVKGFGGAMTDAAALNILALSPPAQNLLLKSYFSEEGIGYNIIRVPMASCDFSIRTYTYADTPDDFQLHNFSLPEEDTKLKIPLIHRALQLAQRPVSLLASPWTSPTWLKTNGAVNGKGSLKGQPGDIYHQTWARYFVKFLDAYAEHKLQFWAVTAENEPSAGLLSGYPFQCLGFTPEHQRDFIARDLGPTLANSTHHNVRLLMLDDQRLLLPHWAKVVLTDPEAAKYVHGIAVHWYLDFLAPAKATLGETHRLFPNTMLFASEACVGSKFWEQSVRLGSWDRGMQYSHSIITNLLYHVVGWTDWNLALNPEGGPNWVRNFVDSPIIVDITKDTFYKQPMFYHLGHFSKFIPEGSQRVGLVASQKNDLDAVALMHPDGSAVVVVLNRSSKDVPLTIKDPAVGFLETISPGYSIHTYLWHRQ
Description: GBA1 activity, recombinant human enzyme (Cerezyme), 4-MU-β-glucoside substrate.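 Further: enzyme activity read out as fluorescence of the 4-MU released from the substrate, measured on a fluorimeter.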 It counts as biochemical.

Another assay deals with T2, GBA2 (Homo sapiens, UniProt Q9HCG7).
T2 construct: measured using a membrane fraction obtained from Gaucher spleen; from tissue; host or cells: membrane fraction of Gaucher spleen, pre-treated with conduritol B-epoxide
T2 sequence (Q9HCG7 1-927): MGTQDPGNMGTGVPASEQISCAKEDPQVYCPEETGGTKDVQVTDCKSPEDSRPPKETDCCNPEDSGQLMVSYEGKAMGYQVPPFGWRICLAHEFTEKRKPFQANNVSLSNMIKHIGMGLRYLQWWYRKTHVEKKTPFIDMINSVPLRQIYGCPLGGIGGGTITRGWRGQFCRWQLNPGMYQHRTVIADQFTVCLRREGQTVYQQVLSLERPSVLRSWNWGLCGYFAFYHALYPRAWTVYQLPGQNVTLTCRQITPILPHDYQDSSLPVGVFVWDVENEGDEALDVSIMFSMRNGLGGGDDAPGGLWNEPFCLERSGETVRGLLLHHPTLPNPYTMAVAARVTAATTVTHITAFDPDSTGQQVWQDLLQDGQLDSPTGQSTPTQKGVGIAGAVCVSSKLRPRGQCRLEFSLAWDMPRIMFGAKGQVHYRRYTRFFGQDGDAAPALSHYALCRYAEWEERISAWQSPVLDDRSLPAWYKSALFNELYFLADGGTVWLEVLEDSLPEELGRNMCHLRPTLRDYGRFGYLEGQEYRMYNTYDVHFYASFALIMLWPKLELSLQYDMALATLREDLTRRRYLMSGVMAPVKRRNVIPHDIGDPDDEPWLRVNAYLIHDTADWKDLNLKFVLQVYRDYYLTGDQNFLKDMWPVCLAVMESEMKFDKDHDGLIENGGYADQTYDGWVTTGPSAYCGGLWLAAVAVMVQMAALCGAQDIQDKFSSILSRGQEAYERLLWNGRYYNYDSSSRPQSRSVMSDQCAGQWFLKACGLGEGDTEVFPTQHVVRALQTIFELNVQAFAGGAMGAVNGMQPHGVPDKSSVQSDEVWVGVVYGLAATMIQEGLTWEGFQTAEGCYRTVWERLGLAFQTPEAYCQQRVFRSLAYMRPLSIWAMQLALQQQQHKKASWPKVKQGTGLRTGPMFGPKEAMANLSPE
The assay is described as follows: GBA2 activity, membrane fraction from Gaucher spleen, 4-MU-β-glucoside substrate.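 Further: Read-out is fluorimetric quantification of released 4-MU.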 It counts as biochemical.

The target of assay [1] is T3, glucosylceramide synthase (GCS) (Mus musculus, UniProt O88693).
T3 construct: IC50 values for GCS activity were measured using living cells; endogenous in cells
T3 sequence (O88693 1-394): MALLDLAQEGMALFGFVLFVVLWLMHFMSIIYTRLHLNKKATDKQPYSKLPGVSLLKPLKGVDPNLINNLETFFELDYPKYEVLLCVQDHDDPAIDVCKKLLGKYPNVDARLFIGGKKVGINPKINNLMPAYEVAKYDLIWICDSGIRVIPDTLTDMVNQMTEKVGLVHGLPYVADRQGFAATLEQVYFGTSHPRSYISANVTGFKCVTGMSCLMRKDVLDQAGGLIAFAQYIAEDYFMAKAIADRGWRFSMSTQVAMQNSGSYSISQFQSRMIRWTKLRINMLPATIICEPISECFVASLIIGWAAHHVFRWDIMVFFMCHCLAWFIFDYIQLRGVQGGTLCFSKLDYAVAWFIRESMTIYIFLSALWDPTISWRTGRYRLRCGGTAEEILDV
Description: GCS activity in living macrophage  cells (C6-NBD lipid, TLC readout). The format is cell-based. As to conditions: read-out: GCS [nM] (IC50).

The mark [2] stands for this setting: D-gluco configuration series, Example 3.

Like-named read-outs stand apart in the source and are kept apart here.

Usually IC50 stands for the midpoint of a concentration-inhibition curve.

Turning to `OC[C@H]1[C@@H](O)[C@H](O)[C@@H](O)CN1CCCCCOCC12CC3CC(CC(C3)C1)C2` [Compound 2, (adamantanemethyloxypentyl)-L-ido-deoxynojirimycin], the “inhibitory activity against the intestinal glycosidases” value in the assay on intestinal glycosidases is on record as “little to no inhibitory activity”.

Turning to `OC[C@@H]1[C@@H](O)[C@H](O)[C@@H](O)CN1CCCCCOCc1ccc(-c2ccc3c(c2)OCCCO3)cc1` [Compound 19], the IC50 on GBA1 amounted to 3000 nM; on GBA2, 10 nM; in assay [1], 25 nM.

Turning to `OC[C@@H]1[C@@H](O)[C@H](O)[C@@H](O)CN1CCCCCOCc1ccc(-c2ccc3c(c2)OCCO3)cc1` [Compound 20], the IC50 on GBA1 is 3000 nM; against GBA2, 10 nM; in assay [1], 25 nM.

Take `COc1ccc(-c2ccc(COCCCCCN3C[C@H](O)[C@@H](O)[C@H](O)[C@H]3CO)cc2)cc1` [Compound 33]: the half-maximal inhibitory concentration (IC50) on GBA1 is 2500 nM; on GBA2 (setting [2]), 10 nM; in assay [1] it was 25 nM.

Turning to `OC[C@@H]1[C@@H](O)[C@H](O)[C@@H](O)CN1CC(F)(F)CCCOCc1ccc(-c2ccccc2)cc1` [Compound 11], the values for the concentration for half-maximal inhibition (IC50) (at GBA1; on GBA2; in assay [1]) were 500 nM, 2 nM and 200 nM, respectively.

Consider `Cc1ccc(-c2ccc(COCCCCCN3C[C@H](O)[C@@H](O)[C@H](O)[C@H]3CO)cc2)cc1` [Compound 36], for which the IC50 came to 250 nM at GBA1, 3 nM at GBA2 (setting [2]) and 100 nM in assay [1].

For `N#Cc1cccc(-c2ccc(COCCCCCN3C[C@H](O)[C@@H](O)[C@H](O)[C@H]3CO)cc2)c1` [Compound 29], the 50% inhibitory concentration (IC50) on GBA1 stood at 700 nM; against GBA2 (setting [2]), 2 nM; in assay [1] (setting [2]) it was 50 nM.

Turning to `N#Cc1ccccc1-c1ccc(COCCCCCN2C[C@H](O)[C@@H](O)[C@H](O)[C@H]2CO)cc1` [Compound 28], the 50% inhibitory concentration (IC50) at GBA1 came out at 600 nM; against GBA2 (setting [2]), 5 nM; in assay [1] it was 150 nM.

`OC[C@@H]1[C@@H](O)[C@H](O)[C@@H](O)CN1CCCCCOCc1ccccc1-c1ccccc1` [Compound 14]: the IC50 worked out at 1250 nM on GBA1, 3 nM at GBA2 (setting [2]) and 50 nM in assay [1].

Consider `OC[C@@H]1[C@@H](O)[C@H](O)[C@@H](O)CN1CCCC(F)(F)COCc1ccc(-c2ccccc2)cc1` [Compound 10], for which the figures for the IC50 (on GBA1; on GBA2; in assay [1]) were 12500 nM, 2 nM and 15 nM, respectively.

As for `N#Cc1ccc(-c2ccc(COCCCCCN3C[C@H](O)[C@@H](O)[C@H](O)[C@H]3CO)cc2)cc1` [Compound 30], the results for the IC50 (on GBA1; against GBA2 (setting [2]); in assay [1]) were 350 nM, 3 nM and 150 nM, respectively.

In the case of `OC[C@@H]1[C@@H](O)[C@H](O)[C@@H](O)CN1CCCCCOCc1ccc(-c2ccnc(F)c2)cc1` [Compound 16], the IC50 on GBA1 was found to be 2000 nM; against GBA2 (setting [2]), 4 nM; in assay [1], 150 nM.

Regarding `OC[C@@H]1[C@@H](O)[C@H](O)[C@@H](O)CN1CCCCCOCc1ccc(-c2ccccc2F)cc1` [Compound 25], the half-maximal inhibitory concentration (IC50) at GBA1 came to 600 nM; at GBA2 (setting [2]) it was 2 nM; in assay [1] it was 74 nM.

For `COc1ccccc1-c1ccc(COCCCCCN2C[C@H](O)[C@@H](O)[C@H](O)[C@H]2CO)cc1` [Compound 31], the IC50 at GBA1 was 600 nM; against GBA2, 0.7 nM; in assay [1] it was 50 nM.
